Measurements from patent publication US20100298141A1, “SUBSTITUTED PYRIDINE N-OXIDE HERBICIDES” (E. I. DU PONT DE NEMOURS AND COMPANY, priority 2007, published 2010).

Experiments:
[1] = test system: morningglory; assay: Test A pre-/postemergence greenhouse test; assay type: in vivo, Ipomoea spp.; settings: for Plant response rating, Morningglory: 0 to 100 scale where 0 is no effect and 100 is complete control; for Morningglory plant response rating: 0 to 100 scale
In short: (§1)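 Sowing in loam/sand; same-day pre (directed soil spray) and post (foliar, 1–2 leaf, 2–10 cm) treatment with surfactant-containing non-phytotoxic solvent formulation; ~10 days in greenhouse; eye-scored injury against untreated plants.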

[2] = test system: redroot pigweed; assay: Test A pre-/postemergence greenhouse test; assay type: in vivo, Amaranthus retroflexus; settings: for Plant response rating, Pigweed: 0 to 100 scale where 0 is no effect and 100 is complete control; for Pigweed plant response rating: 0 to 100 scale
In short: as §1

[3] = test system: velvetleaf; assay: Test A pre-/postemergence greenhouse test; assay type: in vivo, Abutilon theophrasti; settings: for Plant response rating, Velvetleaf: 0 to 100 scale where 0 is no effect and 100 is complete control; for Velvetleaf plant response rating: 0 to 100 scale
In short: as §1

[4] = test system: rice; assay: Test C flooded paddy test; assay type: in vivo, Oryza sativa; settings: Flood
In short: (§2)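 In-water treatment: compound dosed into 3 cm flood over soil, water level unchanged throughout. Controls run alongside; visual assessment at day 13–15.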

[5] = test system: barnyardgrass; assay: Test A pre-/postemergence greenhouse test; assay type: in vivo, Echinochloa crus-galli; settings: for Plant response rating, Barnyardgrass: 0 to 100 scale where 0 is no effect and 100 is complete control; for Barnyardgrass plant response rating: 0 to 100 scale
In short: as §1

[6] = test system: giant foxtail; assay: Test A pre-/postemergence greenhouse test; assay type: in vivo, Setaria faberi; settings: for Plant response rating, Foxtail, Giant: 0 to 100 scale where 0 is no effect and 100 is complete control; for Foxtail, Giant plant response rating: 0 to 100 scale
In short: as §1

[7] = test system: umbrella sedge; assay: Test C flooded paddy test; assay type: in vivo, Cyperus difformis; settings: Flood
In short: as §2

[8] = test system: barnyardgrass; assay: Test C flooded paddy test; assay type: in vivo, Echinochloa crus-galli; settings: Flood
In short: as §2

[9] = test system: duck salad; assay: Test C flooded paddy test; assay type: in vivo, Heteranthera limosa; settings: Flood
In short: as §2

[10] = test system: crabgrass; assay: Test A pre-/postemergence greenhouse test; assay type: in vivo, Digitaria sanguinalis; settings: for Plant response rating, Crabgrass, Large: 0 to 100 scale where 0 is no effect and 100 is complete control; for Crabgrass, Large plant response rating: 0 to 100 scale
In short: as §1

[11] = test system: corn; assay: Test A pre-/postemergence greenhouse test; assay type: in vivo, Zea mays; settings: for Plant response rating, Corn: 0 to 100 scale where 0 is no effect and 100 is complete control; for Corn plant response rating: 0 to 100 scale
In short: as §1

[12] = test system: wheat; assay: Test A pre-/postemergence greenhouse test; assay type: in vivo, Triticum aestivum; settings: for Plant response rating, Wheat: 0 to 100 scale where 0 is no effect and 100 is complete control; for Wheat plant response rating: 0 to 100 scale
In short: as §1

[13] = Postemergence, 500 g ai/ha, 0 is no effect, 100 is complete control
[14] = Preemergence, 125 g ai/ha, 0 no effect, 100 complete control
[15] = Preemergence, 500 g ai/ha, 0 no effect, 100 complete control
[16] = 62 g ai/ha, scale 0 to 100 (0 no effect, 100 complete control)
[17] = 250 g ai/ha, scale 0 to 100, 0 no effect, 100 complete control, 13 to 15 days
[18] = 31 g ai/ha, scale 0 to 100 (0 no effect, 100 complete control)
[19] = 125 g ai/ha, scale 0 to 100, 0 no effect, 100 complete control, 13 to 15 days

Cn1nc(C(F)(F)C(F)(F)F)c(CS(=O)(=O)c2ccc(Cl)c[n+]2[O-])c1OCC(F)(F)F [Compound 100]
20: Morningglory plant response rating [1, 13] | Velvetleaf plant response rating [3, 13]
80: Pigweed plant response rating [2, 15] | Crabgrass, Large plant response rating [10, 13] | Crabgrass, Large plant response rating [10, 15]
90: Barnyardgrass plant response rating [5, 15] | Foxtail, Giant plant response rating [6, 13] | Foxtail, Giant plant response rating [6, 15]
40: Plant response rating, Barnyardgrass ([5]; Postemergence, 125 g ai/ha) | Plant response rating, Crabgrass, Large ([10]; Postemergence, 125 g ai/ha) | Crabgrass, Large plant response rating [10, 14]
10: Morningglory plant response rating [1, 15] | Wheat plant response rating [12, 15]
0: Plant response rating, Morningglory ([1]; Postemergence, 125 g ai/ha) | Morningglory plant response rating [1, 14] | Plant response rating, Pigweed ([2]; Postemergence, 125 g ai/ha) | Plant response rating, Velvetleaf ([3]; Postemergence, 125 g ai/ha) | Velvetleaf plant response rating [3, 14] | Plant response rating, Rice [4, 16] | Plant response rating, Rice [4, 17] | Barnyardgrass plant response rating [5, 14] | Plant response rating, Sedge, Umbrella [7, 16] | Plant response rating, Sedge, Umbrella [7, 17] | Plant response rating, Barnyardgrass [8, 16] | Plant response rating, Barnyardgrass [8, 17] | Plant response rating, Ducksalad [9, 16] | Plant response rating, Corn ([11]; Postemergence, 125 g ai/ha) | Corn plant response rating [11, 13] | Corn plant response rating [11, 14] | Corn plant response rating [11, 15] | Plant response rating, Wheat ([12]; Postemergence, 125 g ai/ha) | Wheat plant response rating [12, 13] | Wheat plant response rating [12, 14]
60: Pigweed plant response rating [2, 13] | Pigweed plant response rating [2, 14] | Barnyardgrass plant response rating [5, 13] | Foxtail, Giant plant response rating [6, 14]
30: Plant response rating, Ducksalad [9, 17]
50: Velvetleaf plant response rating [3, 15] | Plant response rating, Foxtail, Giant ([6]; Postemergence, 125 g ai/ha)

CC(C)c1cc[n+]([O-])c(S(=O)(=O)Cc2c(C(F)(F)F)nn(C)c2OC(F)F)c1 [Compound 110]
90: Barnyardgrass plant response rating [5, 14] | Foxtail, Giant plant response rating [6, 13] | Crabgrass, Large plant response rating [10, 13]
30: Plant response rating, Sedge, Umbrella [7, 17] | Wheat plant response rating [12, 14]
80: Pigweed plant response rating [2, 13] | Pigweed plant response rating [2, 14] | Velvetleaf plant response rating [3, 13] | Barnyardgrass plant response rating [5, 13] | Plant response rating, Foxtail, Giant ([6]; Postemergence, 125 g ai/ha) | Foxtail, Giant plant response rating [6, 14]
50: Velvetleaf plant response rating [3, 14] | Plant response rating, Ducksalad [9, 19] | Crabgrass, Large plant response rating [10, 14]
40: Plant response rating, Morningglory ([1]; Postemergence, 125 g ai/ha)
70: Plant response rating, Pigweed ([2]; Postemergence, 125 g ai/ha) | Plant response rating, Crabgrass, Large ([10]; Postemergence, 125 g ai/ha) | Wheat plant response rating [12, 15]
100: Morningglory plant response rating [1, 13] | Morningglory plant response rating [1, 15] | Pigweed plant response rating [2, 15] | Velvetleaf plant response rating [3, 15] | Barnyardgrass plant response rating [5, 15] | Foxtail, Giant plant response rating [6, 15] | Crabgrass, Large plant response rating [10, 15]
75: Plant response rating, Ducksalad [9, 17]
60: Morningglory plant response rating [1, 14] | Plant response rating, Velvetleaf ([3]; Postemergence, 125 g ai/ha) | Plant response rating, Barnyardgrass ([5]; Postemergence, 125 g ai/ha) | Corn plant response rating [11, 13] | Corn plant response rating [11, 15] | Wheat plant response rating [12, 13]
0: Plant response rating, Rice [4, 18] | Plant response rating, Rice [4, 16] | Plant response rating, Rice [4, 19] | Plant response rating, Rice [4, 17] | Plant response rating, Sedge, Umbrella [7, 18] | Plant response rating, Sedge, Umbrella [7, 16] | Plant response rating, Sedge, Umbrella [7, 19] | Plant response rating, Barnyardgrass [8, 18] | Plant response rating, Barnyardgrass [8, 16] | Plant response rating, Barnyardgrass [8, 19] | Plant response rating, Barnyardgrass [8, 17] | Plant response rating, Ducksalad [9, 18] | Plant response rating, Ducksalad [9, 16] | Plant response rating, Corn ([11]; Postemergence, 125 g ai/ha) | Corn plant response rating [11, 14]
20: Plant response rating, Wheat ([12]; Postemergence, 125 g ai/ha)

Cc1cc(S(=O)(=O)Cc2c(C(F)(F)F)nn(C)c2OCC(F)(F)F)[n+]([O-])cc1Cl [Compound 71]
80: Barnyardgrass plant response rating [5, 13] | Foxtail, Giant plant response rating [6, 13]
100: Plant response rating, Pigweed ([2]; Preemergence, 500 g ai/ha) | Plant response rating, Foxtail, Giant ([6]; Preemergence, 500 g ai/ha) | Plant response rating, Crabgrass, Large ([10]; Preemergence, 500 g ai/ha)
60: Plant response rating, Rice [4, 17]
90: Plant response rating, Barnyardgrass ([5]; Preemergence, 500 g ai/ha) | Foxtail, Giant plant response rating [6, 14]
0: Plant response rating, Morningglory ([1]; Postemergence, 125 g ai/ha) | Morningglory plant response rating [1, 14] | Velvetleaf plant response rating [3, 14] | Plant response rating, Sedge, Umbrella [7, 16] | Plant response rating, Ducksalad [9, 16] | Plant response rating, Corn ([11]; Postemergence, 125 g ai/ha) | Wheat plant response rating [12, 14]
70: Pigweed plant response rating [2, 13] | Pigweed plant response rating [2, 14] | Plant response rating, Ducksalad [9, 17] | Crabgrass, Large plant response rating [10, 13]
10: Plant response rating, Morningglory ([1]; Preemergence, 500 g ai/ha)
50: Plant response rating, Pigweed ([2]; Postemergence, 125 g ai/ha) | Velvetleaf plant response rating [3, 13] | Crabgrass, Large plant response rating [10, 14] | Wheat plant response rating [12, 13]
20: Plant response rating, Velvetleaf ([3]; Postemergence, 125 g ai/ha) | Plant response rating, Barnyardgrass [8, 16] | Plant response rating, Barnyardgrass [8, 17] | Corn plant response rating [11, 14] | Plant response rating, Corn ([11]; Preemergence, 500 g ai/ha)
40: Plant response rating, Barnyardgrass ([5]; Postemergence, 125 g ai/ha) | Barnyardgrass plant response rating [5, 14] | Plant response rating, Foxtail, Giant ([6]; Postemergence, 125 g ai/ha) | Plant response rating, Wheat ([12]; Preemergence, 500 g ai/ha)
30: Morningglory plant response rating [1, 13] | Plant response rating, Velvetleaf ([3]; Preemergence, 500 g ai/ha) | Plant response rating, Rice [4, 16] | Plant response rating, Sedge, Umbrella [7, 17] | Plant response rating, Crabgrass, Large ([10]; Postemergence, 125 g ai/ha) | Corn plant response rating [11, 13] | Plant response rating, Wheat ([12]; Postemergence, 125 g ai/ha)
